According to ChEMBL document CHEMBL5705899 (Biochem J, 2014):
Calls of active or inactive are those of the source. The calls are words filed in the database; no cut-off is given here.

Columns and labels:
[1] = target: Dual specificity protein kinase CLK3 (Homo sapiens) (UniProt P49761); test: Inhibition of human CLK3 at 1 uM using RB-S6P as substrate in presence of 33P-ATP by ProQinase assay
[2] = target: Diacylglycerol kinase gamma (Homo sapiens) (UniProt P49619); test: Inhibition of recombinant human N-terminal His6-tagged DGKgamma (1 to 752 residues) expressed in baculovirus expression system at 1 uM using diacyl-glycerol as substrate incubated for 40 mins by ADP-Glo assay
[3] = target: Tyrosine-protein kinase receptor UFO (Homo sapiens) (UniProt P30530); test: Inhibition of human AXL at 1 uM using polyEy as substrate in presence of 33P-ATP by ProQinase assay
[4] = target: Interleukin-1 receptor-associated kinase 4 (Homo sapiens) (UniProt Q9NWZ3); test: Inhibition of human IRAK4 at 1 uM using RB-CTF as substrate in presence of 33P-ATP by ProQinase assay
[5] = target: Serine/threonine-protein kinase pim-2 (Homo sapiens) (UniProt Q9P1W9); test: Inhibition of recombinant human N-terminal GST-tagged PIM2 (2 to 334 residues) expressed in Escherichia coli assessed as remaining activity at 1 uM using RSRHSSYPAGT as substrate incubated for 30 mins in presence of [gamma-33P]ATP by filter binding method relative to control
Serine/threonine-protein kinase pim-2 (Homo sapiens), sequence (Q9P1W9 whole entry, looked up, the tested form may be a part): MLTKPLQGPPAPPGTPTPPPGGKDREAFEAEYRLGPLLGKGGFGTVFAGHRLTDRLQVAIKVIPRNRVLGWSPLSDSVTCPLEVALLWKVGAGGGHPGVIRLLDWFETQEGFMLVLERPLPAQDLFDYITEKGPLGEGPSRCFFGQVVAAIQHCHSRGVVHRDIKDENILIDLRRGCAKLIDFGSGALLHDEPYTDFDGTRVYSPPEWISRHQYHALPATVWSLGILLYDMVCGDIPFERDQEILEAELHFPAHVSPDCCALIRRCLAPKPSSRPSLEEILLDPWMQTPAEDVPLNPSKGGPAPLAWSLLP

[6] = target: Mitogen-activated protein kinase 3 (Homo sapiens) (UniProt P27361); test: Inhibition of human ERK1 at 1 uM using RBER-CHKtide as substrate in presence of 33P-ATP by ProQinase assay
[7] = target: Tyrosine-protein kinase Lck (Homo sapiens) (UniProt P06239); test: Inhibition of recombinant human N-terminal His6-tagged LCK (2 to 509 residues) expressed in baculovirus infected Sf21 cells assessed as remaining activity at 1 uM using KVEKIGEGTYGVVYK as substrate incubated for 30 mins in presence of [gamma-33P]ATP by filter binding method relative to control
Tyrosine-protein kinase Lck (Homo sapiens), sequence (P06239 2-509 limits assumed): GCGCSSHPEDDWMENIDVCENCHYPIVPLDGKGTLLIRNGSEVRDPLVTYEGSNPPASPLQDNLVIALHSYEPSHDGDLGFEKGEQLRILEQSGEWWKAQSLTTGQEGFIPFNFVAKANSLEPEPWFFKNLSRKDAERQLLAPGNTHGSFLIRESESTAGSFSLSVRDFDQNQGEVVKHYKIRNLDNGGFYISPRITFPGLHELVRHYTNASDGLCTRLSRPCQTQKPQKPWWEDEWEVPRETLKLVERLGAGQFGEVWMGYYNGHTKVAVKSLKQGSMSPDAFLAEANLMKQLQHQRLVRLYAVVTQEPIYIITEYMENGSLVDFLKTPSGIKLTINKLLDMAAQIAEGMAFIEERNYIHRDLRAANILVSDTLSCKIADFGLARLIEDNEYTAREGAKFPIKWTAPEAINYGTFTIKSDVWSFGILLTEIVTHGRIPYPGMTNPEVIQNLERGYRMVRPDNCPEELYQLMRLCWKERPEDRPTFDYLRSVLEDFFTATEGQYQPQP

[8] = target: Tyrosine-protein kinase Lck (Homo sapiens) (UniProt P06239); test: Inhibition of human LCK at 1 uM using polyEY as substrate in presence of 33P-ATP by ProQinase assay
[9] = target: Mitogen-activated protein kinase 10 (Homo sapiens) (UniProt P53779); test: Inhibition of human JNK3 at 1 uM using ATF2 as substrate in presence of 33P-ATP by ProQinase assay
[10] = target: Ephrin type-A receptor 4 (Homo sapiens) (UniProt P54764); test: Inhibition of recombinant human N-terminal GST-tagged EPHA4 (570 to 986 residues) expressed in Escherichia coli assessed as remaining activity at 1 uM using Poly (Glu,Tyr) as substrate incubated for 30 mins in presence of [gamma-33P]ATP by filter binding method relative to control
Ephrin type-A receptor 4 (Homo sapiens), sequence (P54764 whole entry, the tested form may be a part): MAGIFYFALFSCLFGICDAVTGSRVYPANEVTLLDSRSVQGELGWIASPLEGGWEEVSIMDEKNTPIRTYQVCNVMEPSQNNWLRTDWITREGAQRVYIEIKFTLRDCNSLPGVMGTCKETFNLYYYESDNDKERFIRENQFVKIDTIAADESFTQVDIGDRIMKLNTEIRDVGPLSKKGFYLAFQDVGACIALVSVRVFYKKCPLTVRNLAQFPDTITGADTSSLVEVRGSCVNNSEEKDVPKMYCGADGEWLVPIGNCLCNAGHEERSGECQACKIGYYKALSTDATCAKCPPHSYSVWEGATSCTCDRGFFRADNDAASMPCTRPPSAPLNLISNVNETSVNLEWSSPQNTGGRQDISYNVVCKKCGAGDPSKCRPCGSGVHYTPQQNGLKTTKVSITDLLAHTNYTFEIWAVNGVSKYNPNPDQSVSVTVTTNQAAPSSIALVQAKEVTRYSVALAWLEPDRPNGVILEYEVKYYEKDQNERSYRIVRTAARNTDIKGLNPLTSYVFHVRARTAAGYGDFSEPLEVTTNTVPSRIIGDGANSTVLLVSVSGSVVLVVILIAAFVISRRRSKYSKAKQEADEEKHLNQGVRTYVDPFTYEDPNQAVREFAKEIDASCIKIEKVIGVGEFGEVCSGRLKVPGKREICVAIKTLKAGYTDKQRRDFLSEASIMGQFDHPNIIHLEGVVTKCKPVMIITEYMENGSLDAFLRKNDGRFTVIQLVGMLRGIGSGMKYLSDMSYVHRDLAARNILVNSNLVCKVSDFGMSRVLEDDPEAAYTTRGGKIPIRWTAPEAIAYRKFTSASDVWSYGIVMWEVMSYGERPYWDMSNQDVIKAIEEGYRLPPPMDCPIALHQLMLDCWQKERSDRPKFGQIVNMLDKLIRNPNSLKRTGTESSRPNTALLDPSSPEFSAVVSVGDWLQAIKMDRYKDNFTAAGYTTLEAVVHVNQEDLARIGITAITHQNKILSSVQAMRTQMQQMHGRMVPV

[11] = target: SRSF protein kinase 2 (Homo sapiens) (UniProt P78362); test: Inhibition of human SRPK2 at 1 uM using MBP as substrate in presence of 33P-ATP by ProQinase assay
[12] = target: Protein kinase C epsilon type (Homo sapiens) (UniProt Q02156); test: Inhibition of human PKCepsilon at 1 uM using 3xChocktide-PKC as substrate in presence of 33P-ATP by ProQinase assay
[13] = target: Serine/threonine-protein kinase pim-2 (Homo sapiens) (UniProt Q9P1W9); test: Inhibition of human PIM2 at 1 uM using RBER-GSK3 as substrate in presence of 33P-ATP by ProQinase assay
[14] = target: Mitogen-activated protein kinase 13 (Homo sapiens) (UniProt O15264); test: Inhibition of recombinant human GST-tagged P38delta (1 to 365 residues) expressed in Escherichia coli assessed as remaining activity at 1 uM using MBP as substrate incubated for 30 mins in presence of [gamma-33P]ATP by filter binding method relative to control
[15] = target: Hepatocyte growth factor receptor (Homo sapiens) (UniProt P08581); test: Inhibition of human MET at 1 uM using poly(Ala,Glu,Lys,Tyr) as substrate in presence of 33P-ATP by ProQinase assay
Hepatocyte growth factor receptor (Homo sapiens), sequence (P08581 whole entry, canonical isoform): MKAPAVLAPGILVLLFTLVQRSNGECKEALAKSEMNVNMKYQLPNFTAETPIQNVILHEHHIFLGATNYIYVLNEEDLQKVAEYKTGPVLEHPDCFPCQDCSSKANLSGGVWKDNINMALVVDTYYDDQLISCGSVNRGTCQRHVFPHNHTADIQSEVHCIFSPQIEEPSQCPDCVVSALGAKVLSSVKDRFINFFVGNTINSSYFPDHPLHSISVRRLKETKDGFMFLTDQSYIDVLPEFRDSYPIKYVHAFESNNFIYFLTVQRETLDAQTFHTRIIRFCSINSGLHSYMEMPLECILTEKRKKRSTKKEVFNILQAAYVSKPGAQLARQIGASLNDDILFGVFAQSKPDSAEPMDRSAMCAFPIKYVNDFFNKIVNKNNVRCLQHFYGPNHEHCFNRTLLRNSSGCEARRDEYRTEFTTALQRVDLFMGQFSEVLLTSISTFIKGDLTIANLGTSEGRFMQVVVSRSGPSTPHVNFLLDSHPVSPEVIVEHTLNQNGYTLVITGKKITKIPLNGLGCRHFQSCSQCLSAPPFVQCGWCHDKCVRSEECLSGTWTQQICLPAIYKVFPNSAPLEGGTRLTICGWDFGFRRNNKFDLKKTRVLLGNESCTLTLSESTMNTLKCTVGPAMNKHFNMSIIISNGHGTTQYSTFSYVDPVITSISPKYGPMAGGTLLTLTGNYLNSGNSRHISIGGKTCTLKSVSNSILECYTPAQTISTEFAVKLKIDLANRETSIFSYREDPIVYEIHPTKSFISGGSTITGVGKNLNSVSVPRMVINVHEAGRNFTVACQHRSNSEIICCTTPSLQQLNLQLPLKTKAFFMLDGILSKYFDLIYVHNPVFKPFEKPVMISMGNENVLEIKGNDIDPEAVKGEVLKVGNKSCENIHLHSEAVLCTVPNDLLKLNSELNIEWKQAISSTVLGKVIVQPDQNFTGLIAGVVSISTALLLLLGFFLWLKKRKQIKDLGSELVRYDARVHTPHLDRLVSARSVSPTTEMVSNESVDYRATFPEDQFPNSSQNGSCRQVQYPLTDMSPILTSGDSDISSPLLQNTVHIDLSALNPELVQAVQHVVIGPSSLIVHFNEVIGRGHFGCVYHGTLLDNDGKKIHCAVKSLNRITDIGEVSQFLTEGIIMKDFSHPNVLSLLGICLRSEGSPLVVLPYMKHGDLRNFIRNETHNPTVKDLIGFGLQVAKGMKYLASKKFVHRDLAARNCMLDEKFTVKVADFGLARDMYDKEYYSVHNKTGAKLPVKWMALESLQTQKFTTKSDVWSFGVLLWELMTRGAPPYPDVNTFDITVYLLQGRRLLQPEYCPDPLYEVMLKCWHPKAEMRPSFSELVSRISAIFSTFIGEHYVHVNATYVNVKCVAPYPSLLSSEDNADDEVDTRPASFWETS

[16] = target: Casein kinase I isoform gamma-2 (Homo sapiens) (UniProt P78368); test: Inhibition of human CK1gamma2 at 1 uM using casein as substrate in presence of 33P-ATP by ProQinase assay
[17] = target: Serine/threonine-protein kinase 33 (Homo sapiens) (UniProt Q9BYT3); test: Inhibition of human STK33 at 1 uM using RBER-CHKtide as substrate in presence of 33P-ATP by ProQinase assay
[18] = target: Casein kinase I isoform epsilon (Homo sapiens) (UniProt P49674); test: Inhibition of human CK1epsilon at 1 uM using casein as substrate in presence of 33P-ATP by ProQinase assay
[19] = target: Serine/threonine-protein kinase mTOR (Homo sapiens) (UniProt P42345); test: Inhibition of human mTOR at 1 uM using casein as substrate in presence of 33P-ATP by ProQinase assay
[20] = target: Serine/threonine-protein kinase PAK 4 (Homo sapiens) (UniProt O96013); test: Inhibition of recombinant human N-terminal GST-tagged PAK4 (2 to 519 residues) expressed in Escherichia coli assessed as remaining activity at 1 uM using RRRLSFAEPG as substrate incubated for 30 mins in presence of [gamma-33P]ATP by filter binding method relative to control
Serine/threonine-protein kinase PAK 4 (Homo sapiens), sequence (O96013 whole entry, looked up, the tested form may be a part): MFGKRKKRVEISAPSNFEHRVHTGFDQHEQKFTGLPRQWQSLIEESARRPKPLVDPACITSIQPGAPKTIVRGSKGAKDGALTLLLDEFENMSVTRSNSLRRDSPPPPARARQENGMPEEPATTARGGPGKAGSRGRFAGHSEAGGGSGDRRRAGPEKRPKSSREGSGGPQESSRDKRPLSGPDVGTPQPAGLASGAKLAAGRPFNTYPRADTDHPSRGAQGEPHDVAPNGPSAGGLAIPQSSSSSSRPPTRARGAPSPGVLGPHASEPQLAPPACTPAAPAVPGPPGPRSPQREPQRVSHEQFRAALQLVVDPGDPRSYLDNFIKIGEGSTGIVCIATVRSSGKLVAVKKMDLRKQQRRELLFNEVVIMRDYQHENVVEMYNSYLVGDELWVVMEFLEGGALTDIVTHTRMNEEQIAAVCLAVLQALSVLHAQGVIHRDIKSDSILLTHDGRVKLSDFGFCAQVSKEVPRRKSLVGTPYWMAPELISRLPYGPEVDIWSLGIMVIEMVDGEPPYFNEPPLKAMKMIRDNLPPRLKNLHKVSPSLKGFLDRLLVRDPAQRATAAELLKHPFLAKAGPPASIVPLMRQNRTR

[21] = target: Vascular endothelial growth factor receptor 1 (Homo sapiens) (UniProt P17948); test: Inhibition of human VEGFR1 at 1 uM using polyEY as substrate in presence of 33P-ATP by ProQinase assay
[22] = target: Diacylglycerol kinase zeta (Homo sapiens) (UniProt Q13574); test: Inhibition of recombinant human N-terminal His6-tagged DGKzeta (1 to 929 residues) expressed in baculovirus expression system at 1 uM using diacyl-glycerol as substrate incubated for 40 mins by ADP-Glo assay
[23] = target: Insulin receptor-related protein (Homo sapiens) (UniProt P14616); test: Inhibition of human INSRR at 1 uM using poly(Ala,Glu,Lys,Tyr) as substrate in presence of 33P-ATP by ProQinase assay
[24] = target: Non-receptor tyrosine-protein kinase TYK2 (Homo sapiens) (UniProt P29597); test: Inhibition of human TYK2 at 1 uM using poly(Ala,Glu,Lys,Tyr) as substrate in presence of 33P-ATP by ProQinase assay
[25] = target: Serine/threonine-protein kinase Nek2 (Homo sapiens) (UniProt P51955); test: Inhibition of recombinant human N-terminal His6-tagged NEK2A (1 to 445 residues) expressed in baculovirus infected Sf21 cells assessed as remaining activity at 1 uM using RFRRSRRMI as substrate incubated for 30 mins in presence of [gamma-33P]ATP by filter binding method relative to control
Serine/threonine-protein kinase Nek2 (Homo sapiens), sequence (P51955 whole entry, the tested form may be a part): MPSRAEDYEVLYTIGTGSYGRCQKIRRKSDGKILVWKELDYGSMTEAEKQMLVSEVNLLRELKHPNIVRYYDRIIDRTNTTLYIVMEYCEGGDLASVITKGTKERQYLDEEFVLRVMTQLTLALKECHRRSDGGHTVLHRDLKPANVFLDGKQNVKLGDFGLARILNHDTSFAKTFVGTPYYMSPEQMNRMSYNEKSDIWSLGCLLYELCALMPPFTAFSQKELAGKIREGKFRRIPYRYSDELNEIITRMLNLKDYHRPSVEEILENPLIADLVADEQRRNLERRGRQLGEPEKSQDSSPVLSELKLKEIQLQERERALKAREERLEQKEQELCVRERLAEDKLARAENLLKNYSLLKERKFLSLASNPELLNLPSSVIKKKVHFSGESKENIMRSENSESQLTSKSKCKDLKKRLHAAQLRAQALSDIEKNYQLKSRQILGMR

[26] = target: Mitogen-activated protein kinase kinase kinase kinase 4 (Homo sapiens) (UniProt O95819); test: Inhibition of human MAP4K4 at 1 uM using casein as substrate in presence of 33P-ATP by ProQinase assay

Dual specificity protein kinase CLK3 (Homo sapiens), sequence (P49761 whole entry, looked up, the tested form may be a part): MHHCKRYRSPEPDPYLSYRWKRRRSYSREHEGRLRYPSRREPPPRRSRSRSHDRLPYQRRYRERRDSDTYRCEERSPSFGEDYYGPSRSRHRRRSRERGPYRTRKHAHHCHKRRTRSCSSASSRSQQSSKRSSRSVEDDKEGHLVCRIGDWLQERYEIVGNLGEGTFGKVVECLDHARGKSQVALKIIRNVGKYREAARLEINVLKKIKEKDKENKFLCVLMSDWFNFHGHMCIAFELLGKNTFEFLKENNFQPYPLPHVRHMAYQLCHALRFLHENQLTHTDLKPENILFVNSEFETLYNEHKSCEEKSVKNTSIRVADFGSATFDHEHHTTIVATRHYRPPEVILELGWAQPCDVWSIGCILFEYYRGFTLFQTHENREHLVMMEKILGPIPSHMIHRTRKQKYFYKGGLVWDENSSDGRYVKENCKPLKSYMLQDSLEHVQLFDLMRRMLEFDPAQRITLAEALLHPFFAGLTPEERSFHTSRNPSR

With `CC(C)(O)CNc1ncc(-c2ccnc(Nc3ccnc(Cl)c3)n2)c(CC2CC2)n1` the inhibition [1] was “inactive”, the inhibition [2] was “inactive” and the inhibition [3] was “inactive”. The inhibition [4] was “inactive”, the Activity [5] was 113% and the inhibition [6] was “inactive”. The Activity [7] was 92%, the inhibition [8] was “inactive” and the inhibition [9] was “inactive”. For the same compound, the Activity [10] was 93%, the inhibition [11] was “inactive” and the inhibition [12] was “inactive”. The inhibition [13] was “inactive”, the Activity [14] was 111% and the inhibition [15] was “inactive”. For the same compound, the inhibition [16] was “inactive”, the inhibition [17] was “inactive” and the inhibition [18] was “inactive”. For the same compound, the inhibition [19] was “inactive”, the Activity [20] was 103% and the inhibition [21] was “inactive”. For the same compound, the inhibition [22] was “inactive”, the inhibition [23] was “inactive” and the inhibition [24] was “inactive”. For the same compound, the Activity [25] was 103% and the inhibition [26] was “inactive”.
